Assays:
Naegleria gruberi = Naegleria gruberi in 1.1 minutes from ozone-demand free phosphate buffer solution; cited from earlier work
Escherichia coli = Escherichia coli in 19 minutes from raw waste water; cited from earlier work
[1] = test system: Bacillus stearothermophilus (ATCC 7953); experiment: Resistance of six organisms to sterilization with ozone gas (Example I); details: six organisms compared, cell density 10^4-10^7, minimum of three runs
Poliovirus type I = Poliovirus type I in 9 minutes from activated sludge effluent; cited from earlier work
[2] = test system: Bacillus subtilis v. globigii spores; details: within 1.5-2 minutes, water purged with 3% ozone by weight; cited from earlier work
[3] = test system: human immunodeficiency virus (HIV); details: non-toxic concentration of 4 μg ozone per ml of serum; cited from earlier work
Candida tropicalis = Candida tropicalis in 0.30 minutes from ozone-demand free water; cited from earlier work

O=[O+][O-] [ozone]
ozone concentration reported for a 99% reduction (Naegleria gruberi): 1.2 mg/L | ozone concentration reported for a 99% reduction (Escherichia coli): 2.2 mg/L | resistance of organism to ozone exposure (ability to maintain viability) [1]: most resistant organism | ozone concentration reported for a 99% reduction (Poliovirus type I): 0.2 mg/L | log reduction of bacterial spores [2]: four-log reduction | log reduction in the infectious titer [3]: six-log reduction | ozone concentration reported for a 99% reduction (Candida tropicalis): 0.02 mg/L

Reference: patent US20010055541A1, “Porous material disinfection method” (priority 2000, published 2001)
